Structures can show the parent of a compound that is named as a salt.
Columns and labels:
sodium channel = experiment: [14C] guanidine uptake induced by veratridine in rat cerebral cortex primary neurons (sodium channel inhibitory action); type: cell-based; settings: [14C] guanidine uptake induced by 100 μM veratridine, specific uptake = portion inhibited by 1 mM mexiletine, read-out: Na Channel Inhibition IC50
Method: The [^14C] guanidine uptake experiment was performed by the method of Bonisch et al. (British Journal of Pharmacology 108, 436-442, 1993) with some modifications. The [^14C] guanidine was used as a sodium tracer, and the inhibitory activity on uptake of [^14C] guanidine induced by veratridine as a sodium channel activator into rat cerebral cortex primary neurons was measured.
Pregnant rats (Wistar, female, 19 days of gestation) were anesthetized with ether. The animals were bled to death by giving incision through the carotid artery. The fetuses were taken out of the pregnant rats and after ethanol sterilization, the cerebral cortex was removed from the fetuses. The cerebral cortex was digested with papain and dispersed in culture medium, followed by plating on a poly-L-lysine-coated 96-well white plate at a density of 2.5×10^5 cells/well. Incubation was performed in a CO2 incubator (37° C., 5% CO2) for 2 days.
After each well was washed once with an assay buffer (135 mM choline Cl, 5 mM KCl, 1 mM MgSO4, 5.5 mM glucose, 1 mg/mL BSA, 10 mM Hepes-Tris, pH 7.4), a fresh assay buffer was added to the well, followed by incubation at 25° C. for 10 minutes. Then, a reaction solution (a test compound, [^14C] guanidine and 100 μM, veratridine) was replaced for the buffer, followed by incubation at 25° C. for 15 minutes. The reaction was terminated by washing 3 times with a cold wash buffer (135 mM NaCl, 5 mM KCl, 1 mM MgSO4, 10 mM Hepes-Tris, pH 7.4). To each well, 17 μl of 0.1N NaOH was added. After agitation, 100 μl of scintillator was added to the well and further agitation was continued. The radioactivity was quantified by a liquid scintillation counter. In each experiment, the sodium channel-specific uptake of the whole uptake was designated as portion that was inhibited by 1 mM mexiletine. The action of the test compound on sodium channel is expressed as 50% inhibition concentration (IC50) based on the specific uptake.

[1] = system: mice with streptozotocin (STZ)-induced diabetic neuropathy; experiment: Analgesic action in mice with streptozotocin (STZ)-induced diabetic neuropathy, tail pinch test; type: in vivo; settings: male ICR mice, Day 15 after STZ, oral 30 mg/kg, 45 minutes prior to measurement, latency after minus before administration
Method: Representative compounds of Compound (I) of the present invention were assessed for the analgesic action in mice with streptozotocin (STZ)-induced diabetic neuropathy to confirm the effect on neuropathic pain. The assessment was performed by the method of Kamei et al. (Pharmacology Biochemistry & Behavior 39, 541-544, 1991) with some modifications.
Male ICR mice of 4 weeks old were intraperitoneally injected with 200 mg/kg weight of STZ to prepare mice with diabetic neuropathic pain. The analgesic action was assessed by the tail pinch test. […] On Day 14 following the STZ injection, a pretest was carried out to determine the response latency before the administration of a test compound. Only the animals showing not longer than 3 seconds of the response latency in the pretest were used for the test compound assessment on the following day (Day 15 after STZ injection).
In the test compound assessment, the response latency after the administration of a test compound was measured. The test compound was orally administered at a dose of 30 mg/kg, 45 minutes prior to the response latency measurement
The analgesic action of a test compound is expressed as prolongation of latency (in seconds) calculated by the formula: (response latency after administration of a test compound)−(response latency before administration of a test compound).

[2] = system: L5/L6 spinal nerve ligation rats; experiment: animal or person; settings: Rattus norvegicus, po, read-out: anti-allodynia ED50
Method: The the assessment was performed by the method of Kim and Chung (Pain 50, 355-363, 1992) with some modifications.
Under pentobarbital anesthesia, male SD rats of 5 or 6 weeks old were given surgery to ligate both the left L5 and L6 lumbar nerves tightly with silk threads. For the assessment of analgesic action, the von Frey hair test was adopted. That is, the animal's hindpaw was picked with hair and the lowest strength of hair for limb withdrawal response was designated as a response threshold (log gram) to mechanical stimulation. […] On the day before the assessment of a test compound, the response threshold before administration of a test compound was measured. The animals were divided into 4 to 5 groups so that differences in the mean values of response thresholds before administration among the groups and variation within groups become small. In the assessment of a test compound, the response threshold after administration of the test compound was measured. The test compound was orally given 30 minutes before measurement of the response threshold. The anti-allodynia action potency of a test compound is expressed as ED50. In the calculation of the ED50, the thresholds of ipsilateral and contralateral paws in the solvent group were designated as 0% and 100%, respectively.

| SMILES | IC50 (sodium channel) [µM] | Anti-STZ-induced pain after oral administration: Latency prolongation [1] | ED50 [2] [mg/kg] |
| --- | --- | --- | --- |
| Cc1cccc(C)c1/C=C/C1CCCNCC1 (stereo not shown) [Example 63, 4-[(E)-2-(2,6-dimethylphenyl)vinyl]azepane] | 10 | 3.3 s | – |
| Cc1cccc(C)c1/C=C\C1CCNCC1 [Example 38, 4-[(Z)-2-(2,6-dimethylphenyl)vinyl]piperidine] | 6 | 3.1 s | – |
| Cc1cc(N(C)C)cc(C)c1/C=C/C1CCNCC1 [Example 53, N,N,3,5-tetramethyl-4-[(E)-2-piperidin-4-ylvinyl]aniline] | 19 | 4.2 s | – |
| Cc1cccc(C)c1OCC(C)N (stereo not shown) [Mexiletine, reference compound] | 70 | about 3 seconds | ~70 |
| Cc1cccc(C)c1/C=C/C1CCNCC1 [Example 39, 4-[(E)-2-(2,6-dimethylphenyl)vinyl]piperidine monohydrochloride] | 16 | 2.9 s | – |
| Cc1cccc(C)c1/C=C/C1CCN(CCN(C)C)CC1 [Example 74, (2-{4-[(E)-2-(2,6-dimethylphenyl)vinyl]piperidin-1-yl}ethyl)dimethylamine] | 7.2 | 1.8 s | – |
| Cc1cccc(Cl)c1/C=C/C1CCNCC1 [Example 37, 4-[(E)-2-(2-chloro-6-methylphenyl)vinyl]piperidine hydrochloride] | 10 | 1.9 s | – |
| Cc1cccc(C)c1/C=C/CC1CCNCC1 [Example 65, 4-[(2E)-3-(2,6-dimethylphenyl)prop-2-en-1-yl]piperidine] | 11 | 2.3 s | – |
| Cc1cccc(C)c1/C=C/C1CCCCN1 (stereo not shown) [Example 62, 2-[(E)-2-(2,6-dimethylphenyl)vinyl]piperidine monohydrochloride] | 9.2 | 2.3 s | – |
| Cc1cccc(C)c1/C=C/C12CCN(CC1)CC2 [Example 24, 4-[(E)-2-(2,6-dimethylphenyl)vinyl]quinuclidine] | 10 | 2.6 s | – |
| Cc1cccc(C)c1/C=C/C1CCCN(C)C1 (stereo not shown) [Example 71, 3-[(E)-2-(2,6-dimethylphenyl)vinyl]-1-methylpiperidine] | 7.7 | 2.3 s | – |
| Cc1cccc(C)c1/C=C/C1CCN(C(=O)CNCCO)CC1 [Example 135, 2-[(2-{4-[(E)-2-(2,6-dimethylphenyl)vinyl]piperidin-1-yl}-2-oxoethyl)amino]ethanol] | – | 2.4 s | – |
| Cc1cccc(C)c1/C=C/C1CCN(C(=O)CN2CCN(C(=O)c3cccnc3)CC2)CC1 [Example 105, 1-(2-{4-[(E)-2-(2,6-dimethylphenyl)vinyl]piperidin-1-yl}-2-oxoethyl)-4-(pyridin-3-ylcarbonyl)piperazine] | – | 1.8 s | – |

Reference: patent publication US8044206B2, “Nitrogen—containing heterocyclic derivatives having 2,6-disubstituted styryl” (Astellas Pharma Inc., priority 2003, dated 2011)
